Laboratory results: PubChem BioAssay (NCI)
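The concentration for 50% growth inhibition is given as GI50. TGI is the concentration that stops growth completely.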

Tests used:
Assay in all cases: NCI anticancer screen, dose series, 384-well format
PC-3 prostate = tested on: PC-3 prostate
HCT-15 colon = tested on: HCT-15 colon
DU-145 prostate = tested on: DU-145 prostate
SW-620 colon = tested on: SW-620 colon
HT29 colon = tested on: HT29 colon
SNB-19 CNS = tested on: SNB-19 CNS
SK-MEL-5 melanoma = tested on: SK-MEL-5 melanoma
EKVX NSCLC = tested on: EKVX NSCLC
KM12 colon = tested on: KM12 colon
BT-549 breast = tested on: BT-549 breast
LOX IMVI melanoma = tested on: LOX IMVI melanoma
CAKI-1 renal = tested on: CAKI-1 renal
SF-539 CNS = tested on: SF-539 CNS
UACC-257 melanoma = tested on: UACC-257 melanoma
CCRF-CEM leukemia = tested on: CCRF-CEM leukemia
RPMI-8226 leukemia = tested on: RPMI-8226 leukemia
RXF 393 renal = tested on: RXF 393 renal
NCI-H460 NSCLC = tested on: NCI-H460 NSCLC
SR leukemia = tested on: SR leukemia
MDA-MB-231 breast = tested on: MDA-MB-231 breast
SK-MEL-28 melanoma = tested on: SK-MEL-28 melanoma
NCI-H522 lung = tested on: NCI-H522 lung
ACHN renal = tested on: ACHN renal
SF-295 CNS = tested on: SF-295 CNS
SF-268 CNS = tested on: SF-268 CNS
MCF7 breast = tested on: MCF7 breast
MALME-3M melanoma = tested on: MALME-3M melanoma
HL-60(TB) leukemia = tested on: HL-60(TB) leukemia
SK-OV-3 ovarian = tested on: SK-OV-3 ovarian
SN12C renal = tested on: SN12C renal
A549 NSCLC = tested on: A549 NSCLC
HOP-62 NSCLC = tested on: HOP-62 NSCLC
HCT-116 colon = tested on: HCT-116 colon
NCI-H23 lung = tested on: NCI-H23 lung
COLO 205 colon = tested on: COLO 205 colon
T-47D breast = tested on: T-47D breast
NCI-H322M lung = tested on: NCI-H322M lung
MOLT-4 leukemia = tested on: MOLT-4 leukemia
M14 melanoma = tested on: M14 melanoma
HOP-92 NSCLC = tested on: HOP-92 NSCLC
UACC-62 melanoma = tested on: UACC-62 melanoma
HS 578T breast = tested on: HS 578T breast
OVCAR-5 ovarian = tested on: OVCAR-5 ovarian
MDA-MB-468 breast = tested on: MDA-MB-468 breast
NCI/ADR-RES ovarian = tested on: NCI/ADR-RES ovarian
SK-MEL-2 melanoma = tested on: SK-MEL-2 melanoma
OVCAR-4 ovarian = tested on: OVCAR-4 ovarian
IGROV1 ovarian = tested on: IGROV1 ovarian
U251 glioblastoma = tested on: U251 glioblastoma
OVCAR-3 ovarian = tested on: OVCAR-3 ovarian
SNB-75 CNS = tested on: SNB-75 CNS
K-562 leukemia = tested on: K-562 leukemia
NCI-H226 lung = tested on: NCI-H226 lung
A498 renal = tested on: A498 renal
MDA-MB-435 melanoma = tested on: MDA-MB-435 melanoma
786-0 renal = tested on: 786-0 renal
HCC-2998 colon = tested on: HCC-2998 colon
TK-10 renal = tested on: TK-10 renal
OVCAR-8 ovarian = tested on: OVCAR-8 ovarian

Structure (SMILES): Oc1ccc(-c2nc(-c3ccc(F)cc3)c(-c3ccncc3)[nH]2)cc1
- GI50 (PC-3 prostate): 18.7 µM
- TGI (PC-3 prostate): > 57 µM
- GI50 (HCT-15 colon): 15.4 µM
- TGI (HCT-15 colon): 32.9 µM
- GI50 (DU-145 prostate): 14.8 µM
- TGI (DU-145 prostate): 31.2 µM
- GI50 (SW-620 colon): 23.5 µM
- TGI (SW-620 colon): 38.4 µM
- GI50 (HT29 colon): 5.85 µM
- TGI (HT29 colon): 20.9 µM
- GI50 (SNB-19 CNS): 41.7 µM
- TGI (SNB-19 CNS): > 100 µM
- GI50 (SK-MEL-5 melanoma): 10.6 µM
- TGI (SK-MEL-5 melanoma): 22.5 µM
- GI50 (EKVX NSCLC): 14.7 µM
- TGI (EKVX NSCLC): 33.2 µM
- GI50 (KM12 colon): 20.2 µM
- TGI (KM12 colon): 37.2 µM
- GI50 (BT-549 breast): 19.2 µM
- TGI (BT-549 breast): > 57.2 µM
- GI50 (LOX IMVI melanoma): 17.6 µM
- TGI (LOX IMVI melanoma): 31.8 µM
- GI50 (CAKI-1 renal): 7.98 µM
- TGI (CAKI-1 renal): > 48.4 µM
- GI50 (SF-539 CNS): 17.6 µM
- TGI (SF-539 CNS): 35.8 µM
- GI50 (UACC-257 melanoma): 21.9 µM
- TGI (UACC-257 melanoma): > 54 µM
- GI50 (CCRF-CEM leukemia): 10.1 µM
- TGI (CCRF-CEM leukemia): 21.8 µM
- GI50 (RPMI-8226 leukemia): 5.38 µM
- TGI (RPMI-8226 leukemia): 13.1 µM
- GI50 (RXF 393 renal): 15 µM
- TGI (RXF 393 renal): 31.5 µM
- GI50 (NCI-H460 NSCLC): 15.3 µM
- TGI (NCI-H460 NSCLC): 28.9 µM
- GI50 (SR leukemia): 10.3 µM
- TGI (SR leukemia): 22.1 µM
- GI50 (MDA-MB-231 breast): 20.7 µM
- TGI (MDA-MB-231 breast): > 60 µM
- GI50 (SK-MEL-28 melanoma): 7.27 µM
- TGI (SK-MEL-28 melanoma): 22.4 µM
- GI50 (NCI-H522 lung): 7.46 µM
- TGI (NCI-H522 lung): 22.2 µM
- GI50 (ACHN renal): 12.2 µM
- TGI (ACHN renal): 31.5 µM
- GI50 (SF-295 CNS): 17.5 µM
- TGI (SF-295 CNS): 33.1 µM
- GI50 (SF-268 CNS): 18.3 µM
- TGI (SF-268 CNS): 46.2 µM
- GI50 (MCF7 breast): 18.8 µM
- TGI (MCF7 breast): > 100 µM
- GI50 (MALME-3M melanoma): 3.34 µM
- TGI (MALME-3M melanoma): 9.1 µM
- GI50 (HL-60(TB) leukemia): 14.6 µM
- TGI (HL-60(TB) leukemia): 27.7 µM
- GI50 (SK-OV-3 ovarian): 13 µM
- TGI (SK-OV-3 ovarian): 32.7 µM
- GI50 (SN12C renal): 44.3 µM
- TGI (SN12C renal): > 100 µM
- GI50 (A549 NSCLC): 19.2 µM
- TGI (A549 NSCLC): > 52.1 µM
- GI50 (HOP-62 NSCLC): 19 µM
- TGI (HOP-62 NSCLC): 42.9 µM
- GI50 (HCT-116 colon): 20 µM
- TGI (HCT-116 colon): > 53.3 µM
- GI50 (NCI-H23 lung): 29.2 µM
- TGI (NCI-H23 lung): 85.4 µM
- GI50 (COLO 205 colon): 8.47 µM
- TGI (COLO 205 colon): 22.1 µM
- GI50 (T-47D breast): 12.5 µM
- TGI (T-47D breast): 27.1 µM
- GI50 (NCI-H322M lung): 21.3 µM
- TGI (NCI-H322M lung): 52.5 µM
- GI50 (MOLT-4 leukemia): 11.9 µM
- TGI (MOLT-4 leukemia): 24.3 µM
- GI50 (M14 melanoma): 5.7 µM
- TGI (M14 melanoma): 21 µM
- GI50 (HOP-92 NSCLC): 15.9 µM
- TGI (HOP-92 NSCLC): 60.4 µM
- GI50 (UACC-62 melanoma): 3.62 µM
- TGI (UACC-62 melanoma): 16.8 µM
- GI50 (HS 578T breast): 15.7 µM
- TGI (HS 578T breast): 31.3 µM
- GI50 (OVCAR-5 ovarian): 23.6 µM
- TGI (OVCAR-5 ovarian): 47 µM
- GI50 (MDA-MB-468 breast): 4.59 µM
- TGI (MDA-MB-468 breast): 19.3 µM
- GI50 (NCI/ADR-RES ovarian): 20.2 µM
- TGI (NCI/ADR-RES ovarian): 46.6 µM
- GI50 (SK-MEL-2 melanoma): 16.3 µM
- TGI (SK-MEL-2 melanoma): 30 µM
- GI50 (OVCAR-4 ovarian): 47.5 µM
- TGI (OVCAR-4 ovarian): > 100 µM
- GI50 (IGROV1 ovarian): 1.62 µM
- TGI (IGROV1 ovarian): 20.9 µM
- GI50 (U251 glioblastoma): 18.6 µM
- TGI (U251 glioblastoma): 48.3 µM
- GI50 (OVCAR-3 ovarian): 14.9 µM
- TGI (OVCAR-3 ovarian): 29 µM
- GI50 (SNB-75 CNS): 32.9 µM
- TGI (SNB-75 CNS): > 85.4 µM
- GI50 (K-562 leukemia): 10.5 µM
- TGI (K-562 leukemia): 24.2 µM
- GI50 (NCI-H226 lung): 18.7 µM
- TGI (NCI-H226 lung): 39.4 µM
- GI50 (A498 renal): 16.4 µM
- TGI (A498 renal): 46.2 µM
- GI50 (MDA-MB-435 melanoma): 10.4 µM
- TGI (MDA-MB-435 melanoma): 44 µM
- GI50 ([…]-0 renal): 12.9 µM
- TGI (786-0 renal): 26.6 µM
- GI50 (HCC-2998 colon): 23.9 µM
- TGI (HCC-2998 colon): 40.8 µM
- GI50 (TK-10 renal): 18.8 µM
- TGI (TK-10 renal): 57.3 µM
- GI50 (OVCAR-8 ovarian): 22.7 µM
- TGI (OVCAR-8 ovarian): > 100 µM
